Earlier results in patent US20140056935A1, “PEPTIDE WHICH CAN INDUCE ANTIBODY CAPABLE OF RECOGNIZING STEREOSTRUCTURE OF HIV” (priority 2011, published 2014).

Test system: HIV
Details: MAGI assay, Non-Patent Document 17

Substance: enfuvirtide
- activity relative to C34 native peptide monomer in terms of EC50 values: about 10 times
